In patent US10844044B2 (Vanderbilt University, priority 2018, dated 2020):

Molecular target: WDR5 (Homo sapiens (Human), UniProt P61964)
Experiment: TR-FRET binding assay (displacement of 10mer-Thr-FAM probe from WDR5)
Conditions: read-out: Ki for Inhibition of WDR5 by TR-FRET assay; TR-FRET, 10mer-Thr-FAM probe, WDR5-His tag 2 nM, pH 7.0

| SMILES | Ki |
| --- | --- |
| COc1ncc(C)cc1-c1cc(Cn2ccn(C)c2=N)cc(C(=O)NC(c2cc(C)ccn2)C2CC2)c1 (stereo not drawn) [Example 2, N-(Cyclopropyl(4-methylpyridin-2-yl)methyl)-3-((2-imino-3-methyl-2,3-dihydro-1-imidazol-1-yl)methyl)-5-(2-methoxy-5-methylpyridin-3-yl)benzamide] | < 0.1 nM |
| COc1ccnc(CNC(=O)c2cc(Cn3ccn(C)c3=N)cc(-c3cc(C)cnc3OC)c2)c1 [Example 4, 3-((2-imino-3-methyl-2,3-dihydro-1H-imidazol-1-yl)methyl)-5-(2-methoxy-5-methylpyridin-3-yl)-N-((4-methoxypyridin-2-yl)methyl)benzamide] | 0.34 nM |
| Cc1cc(F)ccc1-c1cc(Cn2cc[nH]c2=N)cc(C(=O)NCc2ccc(Cl)c(Cl)c2)n1 [Example 6, N-(3,4-Dichlorobenzyl)-6-(4-fluoro-2-methylphenyl)-4-((2-imino-2,3-dihydro-1H-imidazol-1-yl)methyl)picolinamide] | 24 nM |
| Cc1ccnc(C(NC(=O)c2cc(Cn3ccn(C)c3=N)cc(-c3ccnc(C)c3)c2)C2CC2)c1 (stereo not drawn) [Example 7] | 0.8 nM |
| Cc1ccnc(C(NC(=O)c2cc(Cn3ccn(C)c3=N)cc(-c3cccn3C)c2)C2CC2)c1 (stereo not drawn) [Example 11, N-(Cyclopropyl(4-methylpyridin-2-yl)methyl)-3-((2-imino-3-methyl-2,3-dihydro-1H-imidazol-1-yl)methyl)-5-(1-methyl-1H-pyrrol-2-yl)benzamide] | 0.83 nM |
| Cc1ccnc(C(NC(=O)c2cc(Cn3ccn(C)c3=N)cc(-c3ccnn3C)c2)C2CC2)c1 (stereo not drawn) [Example 12, N-(Cyclopropyl(4-methylpyridin-2-yl)methyl)-3-((2-imino-3-methyl-2,3-dihydro-1H-imidazol-1-yl)methyl)-5-(1-methyl-1H-pyrazol-5-yl)benzamide] | 1.2 nM |
| COc1cc(-c2cc(Cn3ccn(C)c3=N)cc(C(=O)NC(c3cc(C)ccn3)C3CC3)c2)ccn1 (stereo not drawn) [Example 14] | 6 nM |
| Cc1ccnc(C(NC(=O)c2cc(Cn3ccn(C)c3=N)cc(-c3cnccc3C)c2)C2CC2)c1 (stereo not drawn) [Example 15, N-(Cyclopropyl(4-methylpyridin-2-yl)methyl)-3-((2-imino-3-methyl-2,3-dihydro-1H-imidazol-1-yl)methyl)-5-(4-methylpyridin-3-yl)benzamide] | 2.7 nM |
| Cc1cc(CNC(=O)c2cc(Cn3ccn(C)c3=N)cc(-c3ccncc3C)c2)ccc1Cl [Example 16, N-(4-Chloro-3-methylbenzyl)-3-((2-imino-3-methyl-2,3-dihydro-1H-imidazol-1-yl)methyl)-5-(3-methylpyridin-4-yl)benzamide] | 0.49 nM |
| Cc1cc(CNC(=O)c2cc(Cn3ccn(C)c3=N)cc(-c3ccnn3C)c2)ccc1Cl [Example 17, N-(4-Chloro-3-methylbenzyl)-3-((2-imino-3-methyl-2,3-dihydro 1H-imidazol-1-yl)methyl)-5-(1-methyl-1H-pyrazol-5-yl)benzamide] | 0.94 nM |
| Cc1cc(-c2cc(Cn3ccn(C)c3=N)cc(C(=O)NCc3ccc(Cl)c(C)c3)c2)ccn1 [Example 18, N-(4-Chloro-3-methylbenzyl)-3-((2-imino-3-methyl-2,3-dihydro-1H-imidazol-1-yl)methyl)-5-(2-methylpyridin-4-yl)benzamide] | 3.5 nM |
| Cc1cc(CNC(=O)c2cc(Cn3cc[nH]c3=N)cc(-c3cccn3C)c2)ccc1Cl [Example 19, N-(4-Chloro-3-methylbenzyl)-3-((2-imino-2,3-dihydro-1H-imidazol-1-yl)methyl)-5-(1-methyl-1H-pyrrol-2-yl)benzamide] | 0.35 nM |
| COc1cnccc1-c1cc(Cn2ccn(C)c2=N)cc(C(=O)NCc2ccc(Cl)c(C)c2)c1 [Example 20, N-(4-Chloro-3-methylbenzyl)-3-((2-imino-3-methyl-2,3-dihydro-1H-imidazol-1-yl)methyl)-5-(3-methoxypyridin-4-yl)benzamide] | 2.5 nM |
| COc1cc(-c2cc(Cn3ccn(C)c3=N)cc(C(=O)NCc3ccc(Cl)c(Cl)c3)c2)ccn1 [Example 24, N-(3,4-Dichlorobenzyl)-3-((2-imino-3-methyl-2,3-dihydro-1H-imidazol-1-yl)methyl)-5-(2-methoxypyridin-4-yl)benzamide] | 25 nM |
| Cc1ncccc1-c1cc(Cn2ccn(C)c2=N)cc(C(=O)NCc2cncnc2)c1 [Example 40, 3-((2-Imino-3-methyl-2,3-dihydro-1H-imidazol-1-yl)methyl)-5-(2-methylpyridin-3-yl)-N-(pyrimidin-5-ylmethyl)benzamide] | 133 nM |
| COc1cc(CNC(=O)c2cc(Cn3ccn(C)c3=N)cc(-c3cccnc3C)c2)ccn1 [Example 41, 3-((2-Imino-3-methyl-2,3-dihydro-1H-imidazol-1-yl)methyl)-N-((2-methoxypyridin-4-yl)methyl)-5-(2-methylpyridin-3-yl)benzamide] | 33 nM |
| COc1ccnc(CNC(=O)c2cc(Cn3ccn(C)c3=N)cc(-c3cccnc3C)c2)c1 [Example 43, 3-((2-Imino-3-methyl-2,3-dihydro-1H-imidazol-1-yl)methyl)-N-((4-methoxypyridin-2-yl)methyl)-5-(2-methylpyridin-3-yl)benzamide] | 8420 nM |
| COc1cc(CN(C)C(=O)c2cc(Cn3ccn(C)c3=N)cc(-c3ccnc(C)c3)c2)cc(OC)c1 [Example 48, N-(3,5-dimethoxybenzyl)-3-((2-imino-3-methyl-2,3-dihydro-1H-imidazol-1-yl)methyl)-N-methyl-5-(2-methylpyridin-4-yl)benzamide] | 26 nM |
| Cc1cc(-c2cc(Cn3ccn(C)c3=N)cc(C(=O)NC(C3CC3)C3CC3)c2)ccn1 [Example 49, N-(Dicyclopropylmethyl)-3-((2-imino-3-methyl-2,3-dihydro-1H-imidazol-1-yl)methyl)-5-(2-methylpyridin-4-yl)benzamide] | 22 nM |
| Cc1cc(-c2cc(Cn3ccn(C)c3=N)cc(C(=O)NCc3ncc(Cl)cn3)c2)ccn1 [Example 51, N-((5-Chloropyrimidin-2-yl)methyl)-3-((2-imino-3-methyl-2,3-dihydro-1H-imidazol-1-yl)methyl)-5-(2-methylpyridin-4-yl)benzamide] | 17 nM |
| COc1cc(CNC(=O)c2cc(Cn3ccn(C)c3=N)cc(-c3cnc(F)cc3C)c2)cc(OC)c1 [Example 78, N-(3,5-Dimethoxybenzyl)-3-(6-fluoro-4-methylpyridin-3-yl)-5-((2-imino-3-methyl-2,3-dihydro-1H-imidazol-1-yl)methyl)benzamide] | 5.9 nM |
| Cc1cc(CNC(=O)c2cc(Cn3ccn(C)c3=N)cc(-c3cnc(F)cc3C)c2)ccc1Cl [Example 79, N-(4-Chloro-3-methylbenzyl)-3-(6-fluoro-4-methylpyridin-3-yl)-5-((2-imino-3-methyl-2,3-dihydro-1H-imidazol-1-yl)methyl)benzamide] | 4.3 nM |
| Cc1cc(CNC(=O)c2cc(Cn3ccn(C)c3=N)cc(-c3ccc(=O)[nH]c3C)c2)ccc1Cl [Example 80, N-(4-Chloro-3-methylbenzyl)-3-((2-imino-3-methyl-2,3-dihydro-1H-imidazol-1-yl)methyl)-5-(2-methyl-6-oxo-1,6-dihydropyridin-3-yl)benzamide] | 20 nM |
| COc1cc(CNC(=O)c2cc(Cn3ccn(C)c3=N)cc(-c3c[nH]c(=O)cc3C)c2)cc(OC)c1 [Example 81, N-(3,5-Dimethoxybenzyl)-3-((2-imino-3-methyl-2,3-dihydro-1H-imidazol-1-yl)methyl)-5-(4-methyl-6-oxo-1,6-dihydropyridin-3-yl)benzamide] | 13 nM |
